{"source": "patent US8192962B2", "about": "“Processes for detecting toxic substances” (Daikin Industries, Ltd., priority 2001, dated 2012)", "system": "Transport facilitation protein genes", "assay": "DNA chip mRNA expression in yeast, transport facilitation protein genes (Table 5)", "format": "cell-based, Saccharomyces cerevisiae S288C", "outline": "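Values are treated/untreated fluorescence ratios from a whole-genome yeast DNA chip hybridized over 12 hours at 65° C with Cy3- or Cy5-labelled cDNA from poly(A) mRNA. Log-phase S288C yeast in YPD at 25° C had received a single toxic chemical for two hours, dosed to slow growth without killing.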", "data": [{"molecule": "CN(C)C(=S)SSC(=S)N(C)C", "note": "[(10), Tetramethylthiuram disulfide]", "values": [{"measurement": "The level of expressed mRNA in the presence of chemical substance/The level of expressed mRNA in the absence of chemical substance", "setting": "yeast gene YGR281W", "value": 1.4}, {"measurement": "The level of expressed mRNA in the presence of chemical substance/The level of expressed mRNA in the absence of chemical substance", "setting": "yeast gene YHL035C", "value": 4.6}, {"measurement": "The level of expressed mRNA in the presence of chemical substance/The level of expressed mRNA in the absence of chemical substance", "setting": "yeast gene YHL036W", "value": 4.4}, {"measurement": "The level of expressed mRNA in the presence of chemical substance/The level of expressed mRNA in the absence of chemical substance", "setting": "yeast gene YHL040C", "value": 11.3}, {"measurement": "The level of expressed mRNA in the presence of chemical substance/The level of expressed mRNA in the absence of chemical substance", "setting": "yeast gene YHL047C", "value": 11.9}, {"measurement": "The level of expressed mRNA in the presence of chemical substance/The level of expressed mRNA in the absence of chemical substance", "setting": "yeast gene YHR026W", "value": 0.9}, {"measurement": "The level of expressed mRNA in the presence of chemical substance/The level of expressed mRNA in the absence of chemical substance", "setting": "yeast gene YHR092C", "value": 0.9}, {"measurement": "The level of expressed mRNA in the presence of chemical substance/The level of expressed mRNA in the absence of chemical substance", "setting": "yeast gene YHR094C", "value": 1.2}, {"measurement": "The level of expressed mRNA in the presence of chemical substance/The level of expressed mRNA in the absence of chemical substance", "setting": "yeast gene YHR175W", "value": 2.0}, {"measurement": "The level of expressed mRNA in the presence of chemical substance/The level of expressed mRNA in the absence of chemical substance", "setting": "yeast gene YIL006W", "value": 1.1}, {"measurement": "The level of expressed mRNA in the presence of chemical substance/The level of expressed mRNA in the absence of chemical substance", "setting": "yeast gene YIL022W", "value": 1.3}, {"measurement": "The level of expressed mRNA in the presence of chemical substance/The level of expressed mRNA in the absence of chemical substance", "setting": "yeast gene YIL056W", "value": 1.6}, {"measurement": "The level of expressed mRNA in the presence of chemical substance/The level of expressed mRNA in the absence of chemical substance", "setting": "yeast gene YIL088C", "value": 1.7}, {"measurement": "The level of expressed mRNA in the presence of chemical substance/The level of expressed mRNA in the absence of chemical substance", "setting": "yeast gene YJL034W", "value": 1.1}, {"measurement": "The level of expressed mRNA in the presence of chemical substance/The level of expressed mRNA in the absence of chemical substance", "setting": "yeast gene YJL212C", "value": 1.3}, {"measurement": "The level of expressed mRNA in the presence of chemical substance/The level of expressed mRNA in the absence of chemical substance", "setting": "yeast gene YJL219W", "value": 2.3}, {"measurement": "The level of expressed mRNA in the presence of chemical substance/The level of expressed mRNA in the absence of chemical substance", "setting": "yeast gene YJR077C", "value": 0.7}, {"measurement": "The level of expressed mRNA in the presence of chemical substance/The level of expressed mRNA in the absence of chemical substance", "setting": "yeast gene YJR106W", "value": 1.6}, {"measurement": "The level of expressed mRNA in the presence of chemical substance/The level of expressed mRNA in the absence of chemical substance", "setting": "yeast gene YJR121W", "value": 1.3}, {"measurement": "The level of expressed mRNA in the presence of chemical substance/The level of expressed mRNA in the absence of chemical substance", "setting": "yeast gene YKL016C", "value": 1.8}, {"measurement": "The level of expressed mRNA in the presence of chemical substance/The level of expressed mRNA in the absence of chemical substance", "setting": "yeast gene YKL146W", "value": 2.8}, {"measurement": "The level of expressed mRNA in the presence of chemical substance/The level of expressed mRNA in the absence of chemical substance", "setting": "yeast gene YKL188C", "value": 2.8}, {"measurement": "The level of expressed mRNA in the presence of chemical substance/The level of expressed mRNA in the absence of chemical substance", "setting": "yeast gene YKR039W", "value": 2.0}, {"measurement": "The level of expressed mRNA in the presence of chemical substance/The level of expressed mRNA in the absence of chemical substance", "setting": "yeast gene YKR067W", "value": 2.3}, {"measurement": "The level of expressed mRNA in the presence of chemical substance/The level of expressed mRNA in the absence of chemical substance", "setting": "yeast gene YLL028W", "value": 2.3}, {"measurement": "The level of expressed mRNA in the presence of chemical substance/The level of expressed mRNA in the absence of chemical substance", "setting": "yeast gene YLL055W", "value": 14.0}, {"measurement": "The level of expressed mRNA in the presence of chemical substance/The level of expressed mRNA in the absence of chemical substance", "setting": "yeast gene YLR081W", "value": 2.2}, {"measurement": "The level of expressed mRNA in the presence of chemical substance/The level of expressed mRNA in the absence of chemical substance", "setting": "yeast gene YLR295C", "value": 1.2}, {"measurement": "The level of expressed mRNA in the presence of chemical substance/The level of expressed mRNA in the absence of chemical substance", "setting": "yeast gene YLR348C", "value": 1.3}, {"measurement": "The level of expressed mRNA in the presence of chemical substance/The level of expressed mRNA in the absence of chemical substance", "setting": "yeast gene YLR378C", "value": 0.7}, {"measurement": "The level of expressed mRNA in the presence of chemical substance/The level of expressed mRNA in the absence of chemical substance", "setting": "yeast gene YMR011W", "value": 0.7}, {"measurement": "The level of expressed mRNA in the presence of chemical substance/The level of expressed mRNA in the absence of chemical substance", "setting": "yeast gene YMR058W", "value": 1.4}, {"measurement": "The level of expressed mRNA in the presence of chemical substance/The level of expressed mRNA in the absence of chemical substance", "setting": "yeast gene YMR162C", "value": 1.0}, {"measurement": "The level of expressed mRNA in the presence of chemical substance/The level of expressed mRNA in the absence of chemical substance", "setting": "yeast gene YMR203W", "value": 1.2}, {"measurement": "The level of expressed mRNA in the presence of chemical substance/The level of expressed mRNA in the absence of chemical substance", "setting": "yeast gene YNL055C", "value": 1.0}, {"measurement": "The level of expressed mRNA in the presence of chemical substance/The level of expressed mRNA in the absence of chemical substance", "setting": "yeast gene YNL259C", "value": 2.1}, {"measurement": "The level of expressed mRNA in the presence of chemical substance/The level of expressed mRNA in the absence of chemical substance", "setting": "yeast gene YNR072W", "value": 1.8}, {"measurement": "The level of expressed mRNA in the presence of chemical substance/The level of expressed mRNA in the absence of chemical substance", "setting": "yeast gene YOL119C", "value": 7.4}, {"measurement": "The level of expressed mRNA in the presence of chemical substance/The level of expressed mRNA in the absence of chemical substance", "setting": "yeast gene YOL156W", "value": 2.1}, {"measurement": "The level of expressed mRNA in the presence of chemical substance/The level of expressed mRNA in the absence of chemical substance", "setting": "yeast gene YOL163W", "value": 6.2}, {"measurement": "The level of expressed mRNA in the presence of chemical substance/The level of expressed mRNA in the absence of chemical substance", "setting": "yeast gene YOR035C", "value": 1.7}, {"measurement": "The level of expressed mRNA in the presence of chemical substance/The level of expressed mRNA in the absence of chemical substance", "setting": "yeast gene YOR130C", "value": 1.7}, {"measurement": "The level of expressed mRNA in the presence of chemical substance/The level of expressed mRNA in the absence of chemical substance", "setting": "yeast gene YOR153W", "value": 1.2}, {"measurement": "The level of expressed mRNA in the presence of chemical substance/The level of expressed mRNA in the absence of chemical substance", "setting": "yeast gene YOR270C", "value": 0.9}, {"measurement": "The level of expressed mRNA in the presence of chemical substance/The level of expressed mRNA in the absence of chemical substance", "setting": "yeast gene YOR273C", "value": 0.5}, {"measurement": "The level of expressed mRNA in the presence of chemical substance/The level of expressed mRNA in the absence of chemical substance", "setting": "yeast gene YOR316C", "value": 2.0}, {"measurement": "The level of expressed mRNA in the presence of chemical substance/The level of expressed mRNA in the absence of chemical substance", "setting": "yeast gene YOR332W", "value": 1.1}, {"measurement": "The level of expressed mRNA in the presence of chemical substance/The level of expressed mRNA in the absence of chemical substance", "setting": "yeast gene YOR348C", "value": 0.4}, {"measurement": "The level of expressed mRNA in the presence of chemical substance/The level of expressed mRNA in the absence of chemical substance", "setting": "yeast gene YPL036W", "value": 0.3}, {"measurement": "The level of expressed mRNA in the presence of chemical substance/The level of expressed mRNA in the absence of chemical substance", "setting": "yeast gene YPL134C", "value": 0.8}, {"measurement": "The level of expressed mRNA in the presence of chemical substance/The level of expressed mRNA in the absence of chemical substance", "setting": "yeast gene YPL265W", "value": 1.2}, {"measurement": "The level of expressed mRNA in the presence of chemical substance/The level of expressed mRNA in the absence of chemical substance", "setting": "yeast gene YPL271W", "value": 1.2}, {"measurement": "The level of expressed mRNA in the presence of chemical substance/The level of expressed mRNA in the absence of chemical substance", "setting": "yeast gene YPR124W", "value": 1.5}, {"measurement": "The level of expressed mRNA in the presence of chemical substance/The level of expressed mRNA in the absence of chemical substance", "setting": "yeast gene YPR192W", "value": 1.3}, {"measurement": "The level of expressed mRNA in the presence of chemical substance/The level of expressed mRNA in the absence of chemical substance", "setting": "yeast gene YPR194C", "value": 0.6}]}]}
